# Measurements published in patent US20150094474A1, “AGRICULTURAL CHEMICALS” (Redx Pharma Ltd., priority 2012, published 2015).
# Assays:
# barley = experiment: Herbicidal bioassay, barley (% necrosis); assay type: in vivo
# Method in brief: (§1)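 Lolium perenne, barley, peas and Chinese cabbage at 2-4 true leaf stage sprayed simultaneously with a Potter tower, compounds in DMSO at six concentrations (0.05% to 0.0001%). Phytotoxicity scored as % necrosis per EPPO PP1/135 at set intervals; five replicates per treatment and species; DMSO and water controls.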
# peas = experiment: Herbicidal bioassay, peas (% necrosis); assay type: in vivo
# Method in brief: as §1
smiles,measurement,setting,value
"CC(C=O)Oc1ccc(Oc2ccc(C(F)(F)F)cn2)cc1 (stereo not drawn) [Compound 28, 2-[4-[[5-(Trifluoromethyl)-2-pyridyl]oxy]phenoxy]propanal]",Sum of % necrosis in barley,"barley; Dose 0.000001, Day 0",C (less than 50% necrosis)
same,Sum of % necrosis in barley,"barley; Dose 0.000001, Day 1",C (less than 50% necrosis)
same,Sum of % necrosis in barley,"barley; Dose 0.000001, Day 3",C (less than 50% necrosis)
same,Sum of % necrosis in barley,"barley; Dose 0.000001, Day 7",C (less than 50% necrosis)
same,Sum of % necrosis in barley,"barley; Dose 0.000001, Day 10",C (less than 50% necrosis)
same,Sum of % necrosis in barley,"barley; Dose 0.000001, Day 14",C (less than 50% necrosis)
same,Sum of % necrosis in barley,"barley; Dose 0.000001, Day 21",C (less than 50% necrosis)
same,Sum of % necrosis in barley,"barley; Dose 0.000005, Day 0",C (less than 50% necrosis)
same,Sum of % necrosis in barley,"barley; Dose 0.000005, Day 1",C (less than 50% necrosis)
same,Sum of % necrosis in barley,"barley; Dose 0.000005, Day 3",C (less than 50% necrosis)
same,Sum of % necrosis in barley,"barley; Dose 0.000005, Day 7",C (less than 50% necrosis)
same,Sum of % necrosis in barley,"barley; Dose 0.000005, Day 10",C (less than 50% necrosis)
same,Sum of % necrosis in barley,"barley; Dose 0.000005, Day 14",C (less than 50% necrosis)
same,Sum of % necrosis in barley,"barley; Dose 0.000005, Day 21",C (less than 50% necrosis)
same,Sum of % necrosis in barley,"barley; Dose 0.00001, Day 0",C (less than 50% necrosis)
same,Sum of % necrosis in barley,"barley; Dose 0.00001, Day 1",C (less than 50% necrosis)
same,Sum of % necrosis in barley,"barley; Dose 0.00001, Day 3",C (less than 50% necrosis)
same,Sum of % necrosis in barley,"barley; Dose 0.00001, Day 7",C (less than 50% necrosis)
same,Sum of % necrosis in barley,"barley; Dose 0.00001, Day 10",C (less than 50% necrosis)
same,Sum of % necrosis in barley,"barley; Dose 0.00001, Day 14",C (less than 50% necrosis)
same,Sum of % necrosis in barley,"barley; Dose 0.00001, Day 21",C (less than 50% necrosis)
same,Sum of % necrosis in barley,"barley; Dose 0.00005, Day 0",C (less than 50% necrosis)
same,Sum of % necrosis in barley,"barley; Dose 0.00005, Day 1",C (less than 50% necrosis)
same,Sum of % necrosis in barley,"barley; Dose 0.00005, Day 3",C (less than 50% necrosis)
same,Sum of % necrosis in barley,"barley; Dose 0.00005, Day 7",C (less than 50% necrosis)
same,Sum of % necrosis in barley,"barley; Dose 0.00005, Day 10",C (less than 50% necrosis)
same,Sum of % necrosis in barley,"barley; Dose 0.00005, Day 14",C (less than 50% necrosis)
same,Sum of % necrosis in barley,"barley; Dose 0.00005, Day 21",C (less than 50% necrosis)
same,Sum of % necrosis in barley,"barley; Dose 0.0001, Day 0",C (less than 50% necrosis)
same,Sum of % necrosis in barley,"barley; Dose 0.0001, Day 1",C (less than 50% necrosis)
same,Sum of % necrosis in barley,"barley; Dose 0.0001, Day 3",C (less than 50% necrosis)
same,Sum of % necrosis in barley,"barley; Dose 0.0001, Day 7",C (less than 50% necrosis)
same,Sum of % necrosis in barley,"barley; Dose 0.0001, Day 10",C (less than 50% necrosis)
same,Sum of % necrosis in barley,"barley; Dose 0.0001, Day 14",C (less than 50% necrosis)
same,Sum of % necrosis in barley,"barley; Dose 0.0001, Day 21",B (50%-80% necrosis)
same,Sum of % necrosis in barley,"barley; Dose 0.0005, Day 0",C (less than 50% necrosis)
same,Sum of % necrosis in barley,"barley; Dose 0.0005, Day 1",C (less than 50% necrosis)
same,Sum of % necrosis in barley,"barley; Dose 0.0005, Day 3",C (less than 50% necrosis)
same,Sum of % necrosis in barley,"barley; Dose 0.0005, Day 7",C (less than 50% necrosis)
same,Sum of % necrosis in barley,"barley; Dose 0.0005, Day 10",C (less than 50% necrosis)
same,Sum of % necrosis in barley,"barley; Dose 0.0005, Day 14",C (less than 50% necrosis)
same,Sum of % necrosis in barley,"barley; Dose 0.0005, Day 21",A (over 80% necrosis)
same,Sum of % necrosis in Peas,"peas; Dose 0.000001, Day 0",C (less than 50% necrosis)
same,Sum of % necrosis in Peas,"peas; Dose 0.000001, Day 1",C (less than 50% necrosis)
same,Sum of % necrosis in Peas,"peas; Dose 0.000001, Day 3",C (less than 50% necrosis)
same,Sum of % necrosis in Peas,"peas; Dose 0.000001, Day 7",C (less than 50% necrosis)
same,Sum of % necrosis in Peas,"peas; Dose 0.000001, Day 10",C (less than 50% necrosis)
same,Sum of % necrosis in Peas,"peas; Dose 0.000001, Day 14",C (less than 50% necrosis)
same,Sum of % necrosis in Peas,"peas; Dose 0.000001, Day 21",B (50%-80% necrosis)
same,Sum of % necrosis in Peas,"peas; Dose 0.000005, Day 0",C (less than 50% necrosis)
same,Sum of % necrosis in Peas,"peas; Dose 0.000005, Day 1",C (less than 50% necrosis)
same,Sum of % necrosis in Peas,"peas; Dose 0.000005, Day 3",C (less than 50% necrosis)
same,Sum of % necrosis in Peas,"peas; Dose 0.000005, Day 7",B (50%-80% necrosis)
same,Sum of % necrosis in Peas,"peas; Dose 0.000005, Day 10",B (50%-80% necrosis)
same,Sum of % necrosis in Peas,"peas; Dose 0.000005, Day 14",B (50%-80% necrosis)
same,Sum of % necrosis in Peas,"peas; Dose 0.000005, Day 21",A (over 80% necrosis)
same,Sum of % necrosis in Peas,"peas; Dose 0.00001, Day 0",C (less than 50% necrosis)
same,Sum of % necrosis in Peas,"peas; Dose 0.00001, Day 1",C (less than 50% necrosis)
same,Sum of % necrosis in Peas,"peas; Dose 0.00001, Day 3",C (less than 50% necrosis)
same,Sum of % necrosis in Peas,"peas; Dose 0.00001, Day 7",C (less than 50% necrosis)
same,Sum of % necrosis in Peas,"peas; Dose 0.00001, Day 10",C (less than 50% necrosis)
same,Sum of % necrosis in Peas,"peas; Dose 0.00001, Day 14",A (over 80% necrosis)
same,Sum of % necrosis in Peas,"peas; Dose 0.00001, Day 21",A (over 80% necrosis)
same,Sum of % necrosis in Peas,"peas; Dose 0.00005, Day 0",C (less than 50% necrosis)
same,Sum of % necrosis in Peas,"peas; Dose 0.00005, Day 1",C (less than 50% necrosis)
same,Sum of % necrosis in Peas,"peas; Dose 0.00005, Day 3",C (less than 50% necrosis)
same,Sum of % necrosis in Peas,"peas; Dose 0.00005, Day 7",C (less than 50% necrosis)
same,Sum of % necrosis in Peas,"peas; Dose 0.00005, Day 10",C (less than 50% necrosis)
same,Sum of % necrosis in Peas,"peas; Dose 0.00005, Day 14",A (over 80% necrosis)
same,Sum of % necrosis in Peas,"peas; Dose 0.00005, Day 21",A (over 80% necrosis)
same,Sum of % necrosis in Peas,"peas; Dose 0.0001, Day 0",C (less than 50% necrosis)
same,Sum of % necrosis in Peas,"peas; Dose 0.0001, Day 1",C (less than 50% necrosis)
same,Sum of % necrosis in Peas,"peas; Dose 0.0001, Day 3",C (less than 50% necrosis)
same,Sum of % necrosis in Peas,"peas; Dose 0.0001, Day 7",C (less than 50% necrosis)
same,Sum of % necrosis in Peas,"peas; Dose 0.0001, Day 10",C (less than 50% necrosis)
same,Sum of % necrosis in Peas,"peas; Dose 0.0001, Day 14",A (over 80% necrosis)
same,Sum of % necrosis in Peas,"peas; Dose 0.0001, Day 21",A (over 80% necrosis)
same,Sum of % necrosis in Peas,"peas; Dose 0.0005, Day 0",C (less than 50% necrosis)
same,Sum of % necrosis in Peas,"peas; Dose 0.0005, Day 1",C (less than 50% necrosis)
same,Sum of % necrosis in Peas,"peas; Dose 0.0005, Day 3",C (less than 50% necrosis)
same,Sum of % necrosis in Peas,"peas; Dose 0.0005, Day 7",B (50%-80% necrosis)
same,Sum of % necrosis in Peas,"peas; Dose 0.0005, Day 10",B (50%-80% necrosis)
same,Sum of % necrosis in Peas,"peas; Dose 0.0005, Day 14",A (over 80% necrosis)
same,Sum of % necrosis in Peas,"peas; Dose 0.0005, Day 21",A (over 80% necrosis)
